Results as given in patent US20220267720A1, “FIBROSIS-SPECIFIC CELL CULTURE SUBSTRATE AND METHODS OF USE” (Xylyx Bio, Inc., priority 2019, published 2022).
One block for each molecule: values may come before it.

Experiments:
[1] = test system: Normal human pulmonary fibroblasts; assay: Proliferation and myofibroblast differentiation assay in fibrotic human lung ECM hydrogel; format: cell-based
Method: Normal human pulmonary fibroblasts were cultured in fibrotic human lung ECM hydrogel for up to 5 days and subjected to live cell imaging with CellTracker™ red, immunofluorescence imaging in multi-well plates, and a common cell-based proliferation assay. Cells were cultured in fibrotic lung ECM hydrogel for 2 days, then TGFβ1 (5 nM) was added to induce myofibroblast differentiation, along with 2.7 mM Pirfenidone (FDA-approved gold standard anti-fibrotic drug) or DMSO vehicle ([…]) control for […] prior to assay readouts on day 5. […] After 48 hours, 1standard immunofluorescence staining was performed in situ in 96-well plates. Fibroblasts expressed vimentin, αSMA, and proliferation marker Ki67 (white arrows, FIG. 21B).

Normal HSC [2] = assay: Cell-based proliferation assay of HSC in fibrotic human liver ECM hydrogel; details: TGFβ1 25 nM, Pirfenidone 2.7 mM, 3 days, readout day 5
Method: (§1) Normal HSC were cultured in fibrotic human liver ECM hydrogel for up to 5 days. Cells were cultured in fibrotic liver ECM hydrogel for 2 days, then TGFβ1 (25 nM) was added to induce activation, along with 2.7 mM Pirfenidone (FDA-approved gold standard anti-fibrotic drug) or DMSO vehicle (1%) control for 3 days prior to assay readouts on day 5. Cell-based proliferation assay, immunofluorescence imaging in multi-well plates, and Elisa for ProCollagen1 were performed. […] Conclusions: We confirmed compatibility of normal & fibrotic liver ECM hydrogel with common analytical techniques & assays used in early-stage drug development including discovery, screening, target validation.

Normal HSC [3] = assay: Ki67 immunofluorescence imaging of HSC in fibrotic human liver ECM hydrogel; format: cell-based; details: for proliferating Ki67+ cells (change): fibrotic liver ECM hydrogel, TGFβ1 25 nM, Pirfenidone 2.7 mM, readout day 5; for Ki67 positive cells after Pirfenidone treatment: 2.7 mM Pirfenidone
Method: as §1

[4] = Diffusivity of fluorescent trackers through liver ECM hydrogels; format: physicochemical
Excerpt: Physiochemical characterizations of fibrotic and normal human liver matrix hydrogels.

[5] = test system: human hepatic stellate cells (HSC); assay: IC50 response of hepatic stellate cells to Erlotinib, XTT assay; format: cell-based; details: HSC on fibrotic or normal soluble ECM or plastic, 72 hours with drug
Method: Methods: Primary human hepatocytes, HepG2 cells (human hepatocarcinoma cell type commonly used to model hepatocytes), and human hepatic stellate cells (HSC) were cultured for up to 7 days on normal or fibrotic human liver matrix scaffolds, Matrigel, collagen I hydrogels, and/or tissue culture plates (plastic) with or without collagen I coating.
HSCs differentially expressed fibrosis-related genes ACTA2, COL1A1 LOXL2 and PDGFR2 in liver scaffolds versus tissue plastic and Coll coated plates (FIG. 11B). […] Although morphologic similarities were observed between HSC cultured in fibrotic and normal liver ECM scaffolds, morphology differed from HSC cultured on artificial substrates (FIG. 11C). […] To test whether HSC cultured on different ECM respond differently to drug treatment then cells grown in standard 2D we measured the IC50 response of HSC to Erlotinib, an inhibitor of the epidermal growth factor receptor (EGFR) tyrosine, used for the treatment for several cancers and currently is in clinical trials for the treatment of hepatocarcinomatous originating from cirrhotic livers (FIG. 11F). 5000 cells were plated on 96 wells on fibrotic or normal ECM soluble ECM and on plastic. 24 hours later Erlotinib or DMSO vehicle in different concentrations was added. Cells were grown with drugs for 72 hours (with media+drug replenished every day). Cell number were assed using a standard XTT assay.

pulmonary fibroblasts [6] = assay: Gene expression of fibroblasts in IPF matrix scaffolds treated with antifibrotic agent; format: cell-based, human
pulmonary fibroblasts [7] = assay: Growth curves of pulmonary fibroblasts in IPF and normal lung matrix scaffolds exposed to antifibrotic agent; format: cell-based, human
[8] = fibroblasts in IPF matrix scaffolds
[9] = fibrotic lung ECM scaffolds compared to tissue culture plastic

Molecule: TGFβ: transforming growth factor beta, added to induce activation / myofibroblast differentiation
αSMA ([1]; TGFβ1 5 nM): increased
cell proliferation (Normal HSC [2]): accelerated cell proliferation
proliferating Ki67+ cells (change) (Normal HSC [3]): significantly changed

diffusion rate [4]: > 2 mm h^−1
Molecule: CC1=CC(C)(C)N(C)c2cc3[o+]c4cc5c(cc4c(-c4cc(NC(=O)c6ccc(CCl)cc6)ccc4C(=O)[O-])c3cc21)C(C)=CC(C)(C)N5C.CC1=CC(C)(C)N(C)c2cc3[o+]c4cc5c(cc4c(-c4ccc(NC(=O)c6ccc(CCl)cc6)cc4C(=O)[O-])c3cc21)C(C)=CC(C)(C)N5C [CellTracker Red CMTPX]

Molecule: C#Cc1cccc(Nc2ncnc3cc(OCCOC)c(OCCOC)cc23)c1 [Erlotinib]
IC50 response of HSC to Erlotinib [5]: lower for cells on normal ECM compared to fibrotic ECM and higher for plastic cultured cells

Molecule: Cc1ccc(=O)n(-c2ccccc2)c1 [Pirfenidone]
proliferation of lung fibroblasts ([1]; 2.7 mM Pirfenidone with TGFβ1 5 nM, readout day 5): decrease proliferation
cell proliferation (Normal HSC [2]): slowed cell proliferation
Ki67 positive cells after Pirfenidone treatment (Normal HSC [3]; HSC on liver ECM): ~20%
Ki67 positive cells after Pirfenidone treatment (Normal HSC [3]; HSC on plastic): over 50%
proliferating Ki67+ cells (change) (Normal HSC [3]): significantly reduced

Molecule: Cc1ccc(-c2ccc3c(ccc4sc5c(c43)NC[C@@H](C)NC5=O)n2)cn1 [PF3644022]
expression of ACTA2 (pulmonary fibroblasts [6]; [8]): consistently reduced
expression of COL1A1 (pulmonary fibroblasts [6]; [8]): consistently reduced
expression of YAP1 (pulmonary fibroblasts [6]; [8]): No significant differences
expression of genes associated with ECM production (pulmonary fibroblasts [6]; [9]): downregulation
growth of fibroblasts, sensitivity and drug response (pulmonary fibroblasts [7]; fibroblasts in IPF matrix scaffolds versus normal lung matrix scaffolds): greater sensitivity and drug response
growth of fibroblasts versus untreated cells (pulmonary fibroblasts [7]; fibroblasts in normal lung matrix scaffolds, after 6 days): not significantly different from untreated cells
sensitivity and drug response (pulmonary fibroblasts [7]; [9]): greater sensitivity and drug response
